Measured values taken from US20220251517A1.
Counter-ions that a name gives are not always drawn.

How the values were obtained:
[1] = system: arrhythmic cardiac microtissues (hiPSC-CM, cell line 1); assay: Anti-arrhythmic drug testing on arrhythmic cardiac microtissues (optical mapping)
[2] = system: cardiac microtissues (hiPSC-CMs and human cardiac fibroblasts); assay: Arrhythmia induction in 3D cardiac microtissues (brightfield beat rate, optical mapping, stimulation capture); format: cell-based; conditions: for presence of arrhythmias at endpoint: N=3
Experimental: (§1) Tissues were allowed to compact for 7 days (Day -7 to 0) and treatment with either arrhythmogenic or control media conditions began on day 8 post-seeding (e.g. Day 0 in FIG. 1A). Arrhythmogenic media consisted of DMEM no glucose (ThermoFisher; 11966025), B-27 minus insulin supplement (1×; ThermoFisher; A1895602), HEPES (10 mM), L-carnitine (2 mM), creatine (5 mM), taurine (5 mM), MEM non-essential amino acids ([…]; ThermoFisher; 11140050), insulin-transferrin-selenium (1×; ThermoFisher; 41400045), galactose (10 mM), MBCD or MBCD-conjugated FAs as follows: hiPSC-CMs were treated with 100 μM FAs (linoleic acid 40 μM, oleic acid 40 μM, and palmitic acid 20 μM; MBCD 0.8 mM); and hESC-CMs were treated with 200 μM FAs (linoleic acid 80 μM, oleic acid 80 μM, and palmitic acid 40 μM; MBCD 1.6 mM)), glutamine (1 mM), and antibiotic-antimycotic. […] Instead, control media were supplemented with glucose (5 mM) and either FA vehicles (MBCD) at a lower dose of MBCD than the arrhythmogenic media (0.5 mM) or no MBCD (to confirm MBCD was the arrhythmogenic agent). Microtissues were treated by addition of media containing the components described above for up to 5 days and analyzed (e.g., imaging, tissue harvesting for isolation of RNA for transcriptomic analysis, fixing tissues for histopathological assessments/staining) at different time points to assess functional and transcriptomic parameters (see FIG. 1A).
During contractile force measurements, cardiac microtissues were electrically stimulated at 1 Hz and at their respective excitation threshold and videos of the 1:30 PDMS rods were taken for 15 seconds under 10× magnification with a Leica EC3 camera. For tissue compaction and spontaneous beating rate measurements, the tissues were not stimulated.
To assess the range of stimulation capture, microtissues were stimulated by a silver electrode at 3 Hz and 6V, and the distance from the electrode to which point the cardiac microtissue was not electrically captured by the delivered electrical impulse was marked as the range of stimulation capture (mm) (e.g., see FIG. 1H).

[3] = system: 5-day arrhythmic cardiac microtissues; assay: Arrhythmia reversal by removal of MBCD from media; format: cell-based, human; conditions: 5 days arrhythmogenic media
Experimental: as §1
Finally, it was reasoned that if MBCD was causing arrhythmias, removal of MBCD from culture media could reverse arrhythmias. To test this, 5-day arrhythmogenic tissues were cultured in control media for 5 additional days (see FIG. 6A). […] Arrhythmic tissues progressively regained synchronicity, allowing for the measurement of beat frequency.

[4] = isoproterenol added to lidocaine-treated arrhythmic tissues
[5] = arrhythmic tissues, acute treatment 30 min, lidocaine 17.5 μg/mL

CCCCc1oc2ccccc2c1C(=O)c1cc(I)c(OCCN(CC)CC)c(I)c1 [amiodarone, Amiodarone]
electrophysiological changes (wavefronts per frame, conduction velocity, cycle length) ([1]; arrhythmic tissues, acute treatment 30 min, flecainide 10 μM, propranolol 4 μg/mL, amiodarone 30 μg/mL): did not produce any significant electrophysiological changes

O=C[C@H](O)[C@@H](O)[C@@H](O)[C@H](O)CO [galactose]
presence of arrhythmias at endpoint ([2]; media containing only galactose (10 mM), no MBCD): did not become arrhythmic

CC(C)NCC(O)c1ccc(O)c(O)c1 (stereo not drawn) [isoproterenol]
conduction velocity [1, 4]: increase | cycle length [1, 4]: reduction | mean wavefronts per frame [1, 4]: no change

CCN(CC)CC(=O)Nc1c(C)cccc1C [lidocaine, Lidocaine HCl]
conduction velocity [1, 5]: significantly decreased | cycle length duration [1, 5]: increasing | mean number of wavefronts per frame [1, 5]: significant reduction

BSA-ligated fatty acids: BSA-ligated fatty acids used in place of MBCD-conjugated fatty acids
induction of arrhythmogenesis ([2]; BSA-ligated fatty acids instead of MBCD-conjugated fatty acids): no effect

methyl-β-cyclodextrin [MBCD]
Cx43 and N-Cad expression and co-localization after arrhythmia reversal ([3]; then 5 days control media): significant increase | passive force after arrhythmia reversal ([3]; then 5 days control media): without significant changes | synchronicity after removal of MBCD ([3]; then 5 days control media): started beating synchronously | contractile force of reverted tissues relative to age matched control tissues ([3]; then control media, plateau, p<0.0001): ~50% | development of arrhythmias ([2]; low MBCD concentration 0.5 mM (control media), 5 days): did not develop arrhythmias | presence of arrhythmias at endpoint ([2]; media containing both MBCD and glucose (5mM), 5 days): arrhythmias were also induced
